The record followed here is patent publication US7300929B2, “Mediators of hedgehog signaling pathways, compositions and uses related thereto” (Curis, Inc., priority 1999, dated 2007).

Test [1] relates to Patched pathway in ptc-null cells. Briefly: Ptc-null assay (gli-1 mRNA by RT-PCR and real-time PCR). Type of test: cell-based, mouse. The settings on record: 3 days, 5 μM. The method, then:
[…] Total ribonucleic acid (RNA) was isolated from the cells and used for reverse transcriptase-polymerase chain reaction (RT-PCR). […] The gli-1 and actin mRNA samples were then loaded on 1.5% agarose gel and were detected by staining with ethidium bromide. The same samples were analyzed by the quantitative real-time polymerase chain reaction method to quantify the levels of gli-1 mRNA.
For orientation: Quantitative PCR measures a nucleic acid by following its amplification.

The subject of test [2] is Patched pathway / ultraviolet radiation-induced BCC tumors. Briefly: Adult BCC mouse skin punch assay. The test is classed as cell-based. The note with it: positive control, 6 days, vs vehicle. The procedure:
Ptc heterozygous transgenic mice were irradiated 3 times weekly for 6 months, during which time many small, and often microscopic, BCC tumors developed. Four-mm diameter skin punch explants, presumably containing BCC structures, were cultured for 6 days in the presence of vehicle, the positive control (jervine), or 5 μM D. At the end of the experiment, the explants were analyzed by X-gal staining to detect the level of Patched pathway activity, by histology to determine the effect of treatment on the morphology of ultraviolet radiation-induced BCCs, and by quantifying the level of gli-1 mRNA expression to characterize the extent of pathway inhibition.

As for `CC1=C2C(=O)[C@H]3[C@@H](CC=C4C[C@@H](O)CC[C@@]43C)[C@@H]2CC[C@]12O[C@@H]1C[C@H](C)CN[C@H]1[C@H]2C` [jervine], the “gli-1 mRNA levels (quantitative real-time PCR)” value in test [1] is “downregulated”. Further, in test [1] (vs vehicle), the “expression of gli-1 mRNA (RT-PCR, agarose gel)” value is “significantly decreased”. Moreover, the “number and size of BCC structures (X-gal staining)” value in test [2] was “greatly decreased”.
